How the values were obtained:
Assay in all cases: combination Emax (second highest fraction inhibited in the dose matrix, 72 h); higher = more inhibition; extreme values may be limits of the assay
[1] = system: BICR22 (Oral Cavity Carcinoma)
Procedure, shortened: (§1)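 Bliss excess equals the observed combination effect minus the expected value EA + EB − EA·EB, where EA and EB are the effects of each agent alone. Combination Emax is the second-highest inhibition within the matrix. Inhibition was scaled from CellTiter-Glo 2.0 luminescence, with 0 set by vehicle wells and 1 by blank wells, after 72 hours of two-drug dosing of cells plated in 1536-well plates.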

[2] = system: COR-L311 (Small Cell Lung Carcinoma)
Procedure, shortened: as §1

[3] = system: VCaP (Prostate Carcinoma)
Procedure, shortened: as §1

[4] = system: ARH-77 (Non-Cancerous)
Procedure, shortened: as §1

[5] = system: 8-MG-BA (Glioblastoma)
Procedure, shortened: as §1

[6] = system: IGR-37 (Melanoma)
Procedure, shortened: as §1

[7] = system: SISO (Cervical Carcinoma)
Procedure, shortened: as §1

[8] = system: JSC-1 (B-Cell Non-Hodgkin's Lymphoma)
Procedure, shortened: as §1

[9] = system: CAPAN-2 (Pancreatic Carcinoma)
Procedure, shortened: as §1

[10] = system: NY (Osteosarcoma)
Procedure, shortened: as §1

[11] = system: TT (Thyroid Gland Carcinoma)
Procedure, shortened: as §1

[12] = system: A498 (Kidney Carcinoma)
Procedure, shortened: as §1

[13] = system: A3-KAW (B-Cell Non-Hodgkin's Lymphoma)
Procedure, shortened: as §1

[14] = system: OS-RC-2 (Kidney Carcinoma)
Procedure, shortened: as §1

[15] = system: A549 (Lung Adenocarcinoma)
Procedure, shortened: as §1

[16] = system: ONS-76 (Other Solid Carcinomas)
Procedure, shortened: as §1

[17] = system: Hs-445 (Non-Cancerous)
Procedure, shortened: as §1

[18] = system: CAS-1 (Glioblastoma)
Procedure, shortened: as §1

[19] = system: PANC-10-05 (Pancreatic Carcinoma)
Procedure, shortened: as §1

[20] = system: CAL-29 (Bladder Carcinoma)
Procedure, shortened: as §1

Row | SMILES | combination Emax [1] | combination Emax [2] | combination Emax [3] | combination Emax [4] | combination Emax [5] | combination Emax [6] | combination Emax [7] | combination Emax [8] | combination Emax [9] | combination Emax [10] | combination Emax [11] | combination Emax [12] | combination Emax [13] | combination Emax [14] | combination Emax [15] | combination Emax [16] | combination Emax [17] | combination Emax [18] | combination Emax [19] | combination Emax [20]
1 | CN(CCO)CC[C@H](CSc1ccccc1)Nc1ccc(S(=O)(=O)NC(=O)c2ccc(N3CCC([C@@H](O)c4ccccc4-c4ccc(Cl)cc4)CC3)cc2)cc1S(=O)(=O)C(F)(F)F [AZD4320] + CN(C)CCCOc1ccc(-c2ccc3ncc4c(c3c2)n(C2CCOCC2)c(=O)n4C)cn1 [AZD0156] (first compound max 1 µM, 7x7, partner max 1 µM) | 0.546 | 1 | 0.19 | 0.793 | 0.0798 | 0.116 | 0.0433 | 0.116 | 0.634 | 0.0862 | 0.269 | 0.254 | 0.228 | 0.209 | 0.175 | 0.178 | 0.497 | 0.229 | 0.373 | 0.104
2 | CN(CCO)CC[C@H](CSc1ccccc1)Nc1ccc(S(=O)(=O)NC(=O)c2ccc(N3CCC([C@@H](O)c4ccccc4-c4ccc(Cl)cc4)CC3)cc2)cc1S(=O)(=O)C(F)(F)F [AZD4320] + C[C@@H]1COCCN1C2=NC(=NC(=C2)C3(CC3)[S@](=N)(=O)C)C4=C5C=CNC5=NC=C4 [AZD6738] (first compound max 1 µM, 7x7, partner max 10 µM) | 0.897 | 1 | 0.577 | 1 | 0.864 | 0.796 | 0.681 | 0.888 | 0.791 | 0.903 | 0.726 | 0.722 | 0.986 | 0.517 | 0.777 | 0.877 | 1 | 0.787 | 0.504 | 0.928
3 | CN(CCO)CC[C@H](CSc1ccccc1)Nc1ccc(S(=O)(=O)NC(=O)c2ccc(N3CCC([C@@H](O)c4ccccc4-c4ccc(Cl)cc4)CC3)cc2)cc1S(=O)(=O)C(F)(F)F [AZD4320] + C[C@@H](Nc1cc(F)cc(F)c1)c1cc(C(=O)N(C)C)cc2c(=O)cc(N3CCOCC3)oc12 [AZD8186] (first compound max 1 µM, 7x7, partner max 3 µM) | 0.838 | 1 | 0.37 | 0.899 | 0.316 | 0.341 | 0.315 | 0.546 | 0.678 | 0.589 | 0.803 | 0.911 | 0.761 | 0.581 | 0.401 | 0.338 | 0.97 | 0.623 | 0.383 | 0.515
4 | CN(CCO)CC[C@H](CSc1ccccc1)Nc1ccc(S(=O)(=O)NC(=O)c2ccc(N3CCC([C@@H](O)c4ccccc4-c4ccc(Cl)cc4)CC3)cc2)cc1S(=O)(=O)C(F)(F)F [AZD4320] + Cc1cc2ncnn2cc1Nc1ncc2c(n1)n(C1CCOCC1)c(=O)n2C [AZD7648] (first compound max 1 µM, 7x7, partner max 10 µM) | 0.594 | 1 | 0.165 | 0.841 | 0.168 | 0.18 | 0.0433 | 0.246 | 0.653 | 0.156 | 0.209 | 0.37 | 0.344 | 0.119 | 0.369 | 0.173 | 0.746 | 0.171 | 0.311 | 0.21
5 | CN(CCO)CC[C@H](CSc1ccccc1)Nc1ccc(S(=O)(=O)NC(=O)c2ccc(N3CCC([C@@H](O)c4ccccc4-c4ccc(Cl)cc4)CC3)cc2)cc1S(=O)(=O)C(F)(F)F [AZD4320] + Cn1cnc2c(F)c(Nc3ccc(Br)cc3Cl)c(C(=O)NOCCO)cc21 [Selumetinib] (first compound max 1 µM, 7x7, partner max 3 µM) | 0.721 | 1 | 0.208 | 0.896 | 0.367 | 0.885 | 0.304 | 0.707 | 0.772 | 0.556 | 0.781 | 0.694 | 0.861 | 0.347 | 0.671 | 0.628 | 0.99 | 0.575 | 0.479 | 0.634
6 | COc1nnc2ccc(N3CCC(c4ccc(OCCN5CCN(C)C(=O)[C@H]5C)cc4)CC3)nn12 [AZD5153] + C=CCn1c(=O)c2cnc(Nc3ccc(N4CCN(C)CC4)cc3)nc2n1-c1cccc(C(C)(C)O)n1 [AZD1775] (first compound max 1 µM, partner max 1 µM) | 0.489 | 0.946 | 0.767 | 0.968 | 0.801 | 0.775 | 0.65 | 0.901 | 0.328 | 0.567 | 0.563 | 0.534 | 1 | 0.486 | 0.885 | 0.601 | 0.71 | 0.658 | 0.597 | 0.524

Reference: the supplement of paper PMC11061612
